Assay results as given in EPA's ToxValDB 9.5 (doi:10.2903/j.efsa.2014.3805).
In brackets after ≈: the same amount, converted by molar mass.

How the values were obtained:
Apis mellifera = details: acute; oral; unspecified; mortality
Bibionidae = details: chronic/long-term; duration: 28 days; body weight
Cyprinus carpio = details: acute; duration: 96 hours; mortality
Daphnia magna = details: chronic/long-term; duration: 21 days; body weight
Oncorhynchus mykiss = details: acute; duration: 96 hours; mortality
Pimephales promelas = details: chronic/long-term; duration: 28 days; body weight
Aphidius rhopalosiphi = assay: LR50; higher = less toxic; details: acute; duration: 48 hours; mortality
Typhlodromus pyri = assay: LR50; higher = less toxic; details: acute; duration: 7 days; mortality

In the case of COc1ccccc1N1CCS/C1=C(/C#N)Sc1cc(C(F)(F)F)ccc1F [Flutianil], the LD50 (Apis mellifera) is reported as over 100 µg/piece, the NOEC (Bibionidae) is reported as 396 mg/kg and the LD50 (Colinus virginianus; acute, oral, mortality) is reported as over 2250 mg/kg. The NOAEL (Colinus virginianus; reproduction developmental) was 186 mg/kg-day, the LC50 (Cyprinus carpio) was over 0.87 µg/mL and the NOEC (Daphnia magna) was 0.00697 mg/L. The LC50 (Oncorhynchus mykiss) was 0.051 µg/mL (≈ 0.12 µM), the NOEC (Pimephales promelas) was 0.000781 mg/L and the LD50 (Rattus norvegicus; acute, oral, mortality) was over 2000 mg/kg. For the same molecule, the NOAEL (Rattus norvegicus; chronic, duration: 2 years, histopathology: nonneoplastic) was 81.9 mg/kg-day, the NOAEL (Rattus norvegicus; developmental, development) was 100 mg/kg-day and the NOAEL (Rattus norvegicus; reproduction developmental, organ weight) was 123 mg/kg-day. It also gave an LC50 (Tagia sp.; acute, duration: 14 days, mortality) of over 500 mg/kg, an NOEC (Tagia sp.; chronic/long-term, duration: 8 weeks, reproduction) of 6.25 mg/kg and an LR50 (Aphidius rhopalosiphi) of over 480 g/ha. It also gave an LR50 (Typhlodromus pyri) of over 480 g/ha.
